# Measured values reported in patent publication US20230212222A1 (ANYGEN CO., LTD., priority 2020, published 2023).
# How the values were obtained:
# [1] = biological target: T1, NTSR2 (Homo sapiens, UniProt O95665); assay: luciferase assay system, ghrelin receptor family selectivity; format: cell-based; settings: compared with intrinsic ligand, FIG. 74
# T1 construct: expressed in transfected cells
# Method: (§1) In addition, through the activity test of the HKFY derivatives for similar receptors to GPR39, ghrelin receptor family (ghrelin receptor (GHSR), motilin receptor (MTLR), neurotensin receptor (NTSR1 & NTSR2), neuromedin U receptor (NMU1 & NMU2), TRH (thyrotropin releasing hormone) receptor (TRHR)), the selectivity and specificity for the GPR39 receptor were confirmed.
# (§2) Specifically, the degree of activity between the intrinsic ligand and HKFY-34 for each receptor was analyzed using a luciferase assay system (FIG. 74).
# [2] = biological target: T2, MTLR (Homo sapiens, UniProt O43193); assay: as above; format: cell-based; settings: compared with intrinsic ligand, FIG. 74
# T2 construct: expressed in transfected cells
# Method: as §1, §2
# [3] = biological target: T3, TRHR (Homo sapiens, UniProt P34981); assay: as above; format: cell-based; settings: compared with intrinsic ligand, FIG. 74
# T3 construct: expressed in transfected cells
# Method: as §1, §2
# [4] = biological target: T4, NTSR1 (Homo sapiens, UniProt P30989); assay: as above; format: cell-based; settings: compared with intrinsic ligand, FIG. 74
# T4 construct: expressed in transfected cells
# Method: as §1, §2
# [5] = biological target: T5, GHSR (Homo sapiens, UniProt Q92847); assay: as above; format: cell-based; settings: compared with intrinsic ligand, FIG. 74
# T5 construct: expressed in transfected cells
# Method: as §1, §2
# [6] = biological target: T6, NMU1 (Homo sapiens, UniProt Q9HB89); assay: as above; format: cell-based; settings: compared with intrinsic ligand, FIG. 74
# T6 construct: expressed in transfected cells
# Method: as §1, §2
# [7] = biological target: T7, NMU2 (Homo sapiens, UniProt Q9GZQ4); assay: as above; format: cell-based; settings: compared with intrinsic ligand, FIG. 74
# T7 construct: expressed in transfected cells
# Method: as §1, §2
# [8] = system: 3T3-L1 cells; assay: lipolytic ability (secreted glycerol) in 3T3-L1 cells; format: cell-based
# Method: (§3) In addition, lipolytic ability according to the HKFY-34 treatment by concentration (100 nM, 500 nM, […] (FIG. 84). When the signal of lipolysis is transmitted, lipid droplet glycerol and free fatty acid in adipocytes are secreted as final products and come out of the cell. At this time, the degree of lipolysis can be confirmed by quantifying the secreted glycerol. Isoproterenol, a positive control group, is an agonist of β-adrenergic receptors and mainly promotes lipolytic ability in adipocytes.
# [9] = system: INS-1, a rat insulinoma cell; assay: glucose-dependent insulin secretion ability test in INS-1 (rat insulin ELISA); format: cell-based
# Method: In this regard, in order to confirm the effect of the HKFY derivative, a candidate GPR39 agonist, on insulin secretion ability, a glucose-dependent insulin secretion ability test was performed in INS-1 (Korea Cell Line Bank), a rat insulinoma cell (FIG. 75).
# Specifically, when INS-1 cells were treated with 1 or 10 μM of HKFY-34 in 2.8 mM glucose similar to a physiological blood glucose level or 11.1 mM glucose, a high blood glucose level, the insulin secretion ability was confirmed using a rat insulin ELISA.
# In addition, through GPR39 knock-down experiment using GPR39 siRNA, it was confirmed that HKFY-34 enhances insulin secretion through the GPR39 receptor.
# [10] = system: adipose tissue (white adipose tissue, WAT); assay: lipolytic ability (secreted glycerol) in adipose tissue (WAT); format: cell-based, mice
# Method: as §3
# [11] = system: C57BL6/J mice with high-fat feed (DIO); assay: glucose tolerance test in mouse model of obesity disease (DIO); format: in vivo; settings: FIG. 89
# Method: (§4) In addition, the glucose tolerance level and insulin level according to HKFY-34 treatment in a mouse model of obesity disease were analyzed (FIGS. 89 and 90).
# (§5) Specifically, in the glucose tolerance level and insulin level analysis experiment, the experiment was performed by changing the mouse model of diabetes mellitus disease into a mouse model of obesity disease (DIO), in which obesity was induced by providing male C57BL6/J mice (6 to 7-week-old, Central Lab. Animal Inc.) with a high-fat feed (60% fat chow) for 5-6 weeks.
# [12] = biological target: T8, GPR39 (Homo sapiens, UniProt O43194); assay: luciferase assay system (SRE luciferase reporter gene) for GPR39 in CV-1 cells
# T8 sequence (O43194 1-453): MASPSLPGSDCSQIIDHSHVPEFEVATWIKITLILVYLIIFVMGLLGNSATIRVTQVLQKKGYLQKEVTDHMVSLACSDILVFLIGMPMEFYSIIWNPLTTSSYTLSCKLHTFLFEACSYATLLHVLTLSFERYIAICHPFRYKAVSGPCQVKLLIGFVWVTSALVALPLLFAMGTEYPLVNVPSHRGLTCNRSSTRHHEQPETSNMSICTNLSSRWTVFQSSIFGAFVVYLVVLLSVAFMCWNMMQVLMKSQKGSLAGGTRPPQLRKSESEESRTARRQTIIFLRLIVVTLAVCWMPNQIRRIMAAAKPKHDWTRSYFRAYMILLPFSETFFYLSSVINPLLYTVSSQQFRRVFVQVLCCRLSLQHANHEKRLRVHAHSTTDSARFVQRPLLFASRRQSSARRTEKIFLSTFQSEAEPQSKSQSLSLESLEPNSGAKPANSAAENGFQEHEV
# Method: (§6) Specifically, the fibroblast cell line CV-1 (1×10^5 cells/ml, Korea Cell Line Bank) was cultured in a 96 well cell culture plate for 24 hours, and then treated with GPR39 inserted into adenovirus and SRE (serum response element) luciferase at 50 MOI (multiplicity of infection) and 25 MOI virus for 3 hours, respectively, and then cultured for 24 hours.
# [13] = system: C57BL6/J mice with high-fat feed (DIO); assay: insulin level in mouse model of obesity disease (DIO); format: in vivo; settings: FIG. 90
# Method: as §4, §5
# [14] = system: db/db mice; assay: blood insulin level in mouse model of diabetes mellitus disease (mouse ELISA); format: in vivo
# Method: In addition, the blood insulin level was analyzed simultaneously with the glucose tolerance test for the mouse model of diabetes mellitus disease (FIG. 88).
# Specifically, after 0, 15, 30, 60, 90, 120 and 180 minutes, blood was collected from the orbital veins of mice, and the insulin level in plasma was analyzed using mouse ELISA.
# [15] = biological target: T8, GPR39
# Method: as §6
# [16] = HKFY-34 concentration 10 μM or higher
# T6 sequence (Q9HB89 whole entry): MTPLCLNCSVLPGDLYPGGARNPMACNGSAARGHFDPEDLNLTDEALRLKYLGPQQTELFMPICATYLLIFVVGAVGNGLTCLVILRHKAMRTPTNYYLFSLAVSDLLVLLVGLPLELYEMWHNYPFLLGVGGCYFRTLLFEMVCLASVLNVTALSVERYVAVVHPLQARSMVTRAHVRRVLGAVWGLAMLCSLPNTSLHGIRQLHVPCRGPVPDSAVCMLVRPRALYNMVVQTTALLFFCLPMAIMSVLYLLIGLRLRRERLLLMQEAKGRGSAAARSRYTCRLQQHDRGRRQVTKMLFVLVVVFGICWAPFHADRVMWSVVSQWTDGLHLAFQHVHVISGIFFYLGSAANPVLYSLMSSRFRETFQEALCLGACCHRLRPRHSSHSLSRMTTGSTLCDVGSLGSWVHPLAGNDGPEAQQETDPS
# T4 sequence (P30989 whole entry, species assumed): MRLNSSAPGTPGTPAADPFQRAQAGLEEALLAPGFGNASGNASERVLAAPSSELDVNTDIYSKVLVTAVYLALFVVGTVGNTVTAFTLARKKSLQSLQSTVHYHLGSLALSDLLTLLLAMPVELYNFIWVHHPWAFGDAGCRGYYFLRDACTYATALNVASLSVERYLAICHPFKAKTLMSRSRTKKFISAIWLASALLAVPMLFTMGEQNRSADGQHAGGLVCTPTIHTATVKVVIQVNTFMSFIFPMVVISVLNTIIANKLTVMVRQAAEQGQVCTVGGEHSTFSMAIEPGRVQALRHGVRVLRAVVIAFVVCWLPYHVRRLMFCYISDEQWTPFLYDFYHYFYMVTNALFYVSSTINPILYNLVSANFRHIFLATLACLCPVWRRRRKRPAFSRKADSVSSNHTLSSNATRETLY
# T1 sequence (O95665 whole entry, species assumed): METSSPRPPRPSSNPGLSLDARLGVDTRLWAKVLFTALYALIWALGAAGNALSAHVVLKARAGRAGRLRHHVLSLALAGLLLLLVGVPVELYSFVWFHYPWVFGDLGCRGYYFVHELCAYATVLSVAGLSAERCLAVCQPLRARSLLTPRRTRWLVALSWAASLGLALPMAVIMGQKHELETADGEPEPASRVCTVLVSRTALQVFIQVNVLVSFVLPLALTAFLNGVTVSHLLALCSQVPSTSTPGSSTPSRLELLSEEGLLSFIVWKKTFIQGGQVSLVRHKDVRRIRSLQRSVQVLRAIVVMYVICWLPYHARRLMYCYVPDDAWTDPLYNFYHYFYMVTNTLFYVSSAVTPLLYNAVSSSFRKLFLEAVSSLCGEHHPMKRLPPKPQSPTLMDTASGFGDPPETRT
# T7 sequence (Q9GZQ4 whole entry, species assumed): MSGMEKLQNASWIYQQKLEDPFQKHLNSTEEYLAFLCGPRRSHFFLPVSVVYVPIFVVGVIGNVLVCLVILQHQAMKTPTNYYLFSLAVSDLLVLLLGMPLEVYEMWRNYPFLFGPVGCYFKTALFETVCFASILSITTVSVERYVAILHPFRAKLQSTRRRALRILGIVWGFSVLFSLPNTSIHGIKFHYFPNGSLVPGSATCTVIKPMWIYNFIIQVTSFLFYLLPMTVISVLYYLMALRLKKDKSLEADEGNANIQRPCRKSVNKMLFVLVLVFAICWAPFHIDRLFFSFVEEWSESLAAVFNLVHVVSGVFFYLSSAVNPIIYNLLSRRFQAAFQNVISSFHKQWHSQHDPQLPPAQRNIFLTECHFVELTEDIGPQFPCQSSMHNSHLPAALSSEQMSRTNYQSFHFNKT
# T5 sequence (Q92847 whole entry, species assumed): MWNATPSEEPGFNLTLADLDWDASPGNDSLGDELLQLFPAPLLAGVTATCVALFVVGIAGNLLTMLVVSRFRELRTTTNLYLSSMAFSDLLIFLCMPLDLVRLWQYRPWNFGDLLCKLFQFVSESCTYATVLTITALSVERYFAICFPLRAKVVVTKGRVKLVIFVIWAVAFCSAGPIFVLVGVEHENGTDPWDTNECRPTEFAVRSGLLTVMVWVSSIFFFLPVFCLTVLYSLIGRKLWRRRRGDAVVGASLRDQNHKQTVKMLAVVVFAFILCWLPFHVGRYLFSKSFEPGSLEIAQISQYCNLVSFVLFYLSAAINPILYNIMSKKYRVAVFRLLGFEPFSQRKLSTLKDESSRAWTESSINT
# T3 sequence (P34981 whole entry, species assumed): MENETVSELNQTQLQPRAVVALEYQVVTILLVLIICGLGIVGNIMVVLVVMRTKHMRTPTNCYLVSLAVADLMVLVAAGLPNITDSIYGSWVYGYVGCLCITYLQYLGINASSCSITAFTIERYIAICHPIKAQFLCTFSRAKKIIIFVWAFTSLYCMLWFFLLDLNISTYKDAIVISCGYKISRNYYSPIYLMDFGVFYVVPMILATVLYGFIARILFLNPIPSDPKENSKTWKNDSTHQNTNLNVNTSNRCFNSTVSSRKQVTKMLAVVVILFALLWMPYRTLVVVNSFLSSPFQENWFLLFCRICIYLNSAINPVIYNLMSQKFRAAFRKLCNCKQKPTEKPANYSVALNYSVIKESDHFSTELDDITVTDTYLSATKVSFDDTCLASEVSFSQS
# T2 sequence (O43193 whole entry, species assumed): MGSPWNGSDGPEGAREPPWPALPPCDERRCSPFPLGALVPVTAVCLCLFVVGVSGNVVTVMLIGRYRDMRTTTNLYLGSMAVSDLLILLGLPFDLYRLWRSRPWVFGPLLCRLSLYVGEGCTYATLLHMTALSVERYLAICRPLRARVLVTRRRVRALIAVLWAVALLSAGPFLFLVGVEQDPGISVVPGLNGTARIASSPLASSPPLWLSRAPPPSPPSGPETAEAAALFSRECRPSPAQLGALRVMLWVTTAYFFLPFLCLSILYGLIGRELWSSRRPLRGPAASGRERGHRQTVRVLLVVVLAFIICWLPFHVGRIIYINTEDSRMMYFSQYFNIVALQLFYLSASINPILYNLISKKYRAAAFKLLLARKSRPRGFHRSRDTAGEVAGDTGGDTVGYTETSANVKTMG
compound,measurement,setting,value
"CCCCCCCC(=O)NCCCC[C@H](NC(=O)[C@@H](N)Cc1cn(C(c2ccccc2)c2ccccc2)cn1)C(=O)N[C@H](Cc1ccc(C)cc1)C(=O)N[C@@H](Cc1ccc(O)cc1)C(=O)O [HKFY-34, ((R)-2-((S)-2-((S)-2-amino-3-(1-benzhydryl-1H-imidazol-4-yl)propanamido)-6-octanamidohexanamido)-3-(p-tolyl)propanoyl)-L-tyrosine]",activity for NTSR2,[1],very low
same,activity for MTLR,[2],very low
same,activity for TRHR,[3],very low
same,activity for NTSR1,[4],very low
same,activity for GHSR,[5],very low
same,activity for NMU1,[6],very low
same,activity for NMU2,[7],very low
same,lipolytic ability,[8]; [16],significantly increased
same,lipolytic ability,"[8]; by concentration, FIG. 84",increased in a concentration dependent manner
same,insulin secretion,"[9]; INS-1, high blood glucose level (11.1 mM glucose), 1 or 10 μM",enhanced at all treatment concentrations
same,change in insulin secretion level,"[9]; INS-1, low blood glucose level (2.8 mM glucose), 1 or 10 μM",insignificant
same,insulin secretion ability,"[9]; cells treated with GPR39 siRNA compared to scrambled siRNA, 11.1 mM glucose",not increased
same,lipolytic ability,[10]; [16],significantly increased
same,lipolytic ability,"[10]; by concentration, FIG. 84",increased in a concentration dependent manner
same,glucose tolerance,[11],glucose tolerance in a concentration dependent manner
same,EC50,"[12]; EC50, CV-1 cells, GPR39 and SRE luciferase adenovirus, treated 6 hours, luminometer",7 ± 1 nM
same,binding capacity and activity to the GPR39 receptor (in words),"[12]; FIG. 73 and Table 4, luciferase and calcium influx assay",excellent
same,EC50,"[12]; Reporter gene assay EC50, Table 4, luciferase assay system",6.7 ± 0.7 nM
same,ECmax value (in words),[12]; comment on Table 3,high ECmax value
same,activity level for GPR39 (in words),[12]; comment on Table 3,higher activity level than other HJKFY derivatives
same,activity level for GPR39 (in words),"[12]; comment on Table 3, listed as HIKFY-34",most excellent activity
same,insulin secretion level,[13],increased
same,insulin secretion (plasma insulin level),"[14]; db/db mice, 0.5, 1, 5 and 10 mg/kg subcutaneously",increased in a concentration dependent manner
same,insulin secretion level,"[14]; db/db mice, 5 and 10 mg/kg",significantly increased
same,ECmax (-fold induction over basal),[15],22.39 ± 4.59 -fold induction over basal
same,Reporter gene assay ECmax (-fold induction over basal),[15],22.39 ± 4.59 -fold induction over basal
